One data set addresses T1, human GnRH receptor (Homo sapiens, UniProt P30968).
T1 sequence (P30968 1-328): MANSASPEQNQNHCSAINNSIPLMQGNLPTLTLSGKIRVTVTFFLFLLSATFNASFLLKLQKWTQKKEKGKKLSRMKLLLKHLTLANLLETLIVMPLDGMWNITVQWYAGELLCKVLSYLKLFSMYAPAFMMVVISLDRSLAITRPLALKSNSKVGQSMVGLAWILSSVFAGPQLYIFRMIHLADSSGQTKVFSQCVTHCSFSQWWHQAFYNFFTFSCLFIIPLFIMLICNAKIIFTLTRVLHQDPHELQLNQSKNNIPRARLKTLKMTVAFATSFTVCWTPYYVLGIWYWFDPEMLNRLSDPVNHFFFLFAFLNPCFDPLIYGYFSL
In words: Test on GnRH receptor antagonism (125I-D-Trp6-LHRH binding inhibition). The following applies: inhibition of 125I-D-Trp6-LHRH binding to human GnRH receptor. An excerpt: GnRH receptor antagonism test method described on p. 56 of the Patent Reference 1.

The nature of data set [1]: Measurement of blood concentration of a compound by ex vivo binding assay. The following applies: Wistar male rat, oral 10 mg/kg in 0.5% MC, serum 2 hours after administration, read-out: Blood compound concentration (B) 2 hour value. The procedure:
Each compound to be tested was dissolved or suspended in 0.5% methyl cellulose (MC) solution and was orally administered to Wistar male rat of 9 weeks of age (SLC Japan) at a dose of 10 mg/kg. Blood sample was collected after 2 hours of the administration to obtain serum.
Each serum sample was mixed with the same volume of methanol to remove protein and optionally diluted with an assay buffer, and then the ^125I-D-Trp^6-LHRH binding inhibition ratio was measured in the same manner as in Test Example 1. Using a separately prepared calibration curve on the concentration-binding inhibition of compounds to be tested, blood concentration of each compound (μM) was calculated from the binding inhibition ratio.

Data set [2] is described as follows: Test on metabolic stability in human liver microsome. The class given is in vitro ADME. As to conditions: human liver microsome 0.2 mg protein/ml, 37° C. 15 minutes; compared with Ex 40, Ex 251, Ex 239 of Patent Reference 1.
Another data set concerns the target Cytochrome P450 (CYP3A4) (Homo sapiens, UniProt P08684). Briefly: Cytochrome P450 (CYP3A4) enzyme inhibition, Inhibition Test II (preincubation). It is filed as in vitro ADME. As to conditions: 30 minutes preincubation with human liver microsome and NADPH, then midazolam 20 minutes; compared with Ex 40, Ex 251, Ex 239 of Patent Reference 1. The procedure:
Thereafter, midazolam as the substrate was added thereto and incubated at 37° C. for 20 minutes.

Each structure is given as a SMILES string.

As usually defined, the IC50 is the concentration that gives 50% inhibition. Higher therefore signals a need for much substance. A word on the melting point: it is the temperature, or range, at which the solid turns liquid.

Cytochrome P450 (CYP3A4), sequence (P08684 whole entry): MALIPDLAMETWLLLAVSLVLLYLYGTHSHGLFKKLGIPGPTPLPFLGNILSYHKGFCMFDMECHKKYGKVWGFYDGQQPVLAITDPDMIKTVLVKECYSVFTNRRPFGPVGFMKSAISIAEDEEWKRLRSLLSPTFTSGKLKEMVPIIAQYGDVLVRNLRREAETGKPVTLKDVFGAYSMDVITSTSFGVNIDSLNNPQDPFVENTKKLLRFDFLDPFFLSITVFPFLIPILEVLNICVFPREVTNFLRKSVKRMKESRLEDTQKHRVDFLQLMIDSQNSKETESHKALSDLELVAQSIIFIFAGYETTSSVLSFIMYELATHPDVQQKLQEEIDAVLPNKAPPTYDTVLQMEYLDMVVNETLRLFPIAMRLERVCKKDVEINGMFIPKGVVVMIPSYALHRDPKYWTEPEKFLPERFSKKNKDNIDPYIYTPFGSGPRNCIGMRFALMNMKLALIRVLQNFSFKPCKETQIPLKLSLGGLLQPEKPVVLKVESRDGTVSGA

`O=C(C(C(=O)c1cccc(C(O)CO)c1)=C1Nc2ccccc2N1)c1cc(F)cc(Cl)c1` (stereo not drawn) [Ex 2-3]: at human GnRH receptor, the IC50 was 0.082 nM. In addition, in data set [1], the concentration at 2 h was 710 nM.

`O=C(C(C(=O)c1cc(F)c(F)c(F)c1)=C1Nc2ccccc2N1)c1cccc(C(O)CO)c1` (stereo not drawn) [Ex 2-4] registered a melting point of 139 to 140 °C. In data set [2], the “metabolic stability in human liver microsome (in vitro clearance)” value (from here on “metabolic stability”) was “superior metabolic stability”. Moreover, at human GnRH receptor, the IC50 worked out at 0.17 nM. Also, the concentration at 2 h in data set [1] was determined as 1310 nM. Besides, on Cytochrome P450 (CYP3A4), the “Inhibitory activity II (CYP3A4)” value is “superior actions”.

With `O=C(C(C(=O)c1cccc(C(O)CO)c1)=C1Nc2ccc(F)cc2N1)c1cc(F)cc(F)c1` (stereo not drawn) [Ex 2-5], at human GnRH receptor, the IC50 was 0.1 nM. Further, in data set [1], the concentration at 2 h worked out at 820 nM.

Molecule `O=C(C(C(=O)c1cccc(C(O)CO)c1)=C1Nc2ccccc2N1)c1cccc(F)c1` (stereo not drawn) [Ex 2-7] showed an IC50 on human GnRH receptor of 0.19 nM. Also, the concentration at 2 h in data set [1] was 1650 nM.

At human GnRH receptor, `O=C(C(C(=O)c1cccc(C(O)CO)c1)=C1Nc2cc(F)c(Cl)cc2N1)c1cc(F)cc(F)c1` (stereo not drawn) [Ex 2-12] returned an IC50 of 0.15 nM. Also, the concentration at 2 h in data set [1] turned out to be 920 nM.

The molecule `O=C(C(C(=O)c1cc(C(O)CO)ccc1F)=C1Nc2ccccc2N1)c1cc(F)cc(F)c1` (stereo not drawn) [Ex 2-20] came in with an IC50 at human GnRH receptor of 0.2 nM. Also, the concentration at 2 h in data set [1] came out at 1140 nM.

Molecule `O=C(C(C(=O)c1cc(F)cc(F)c1F)=C1Nc2ccccc2N1)c1cccc(C(O)CO)c1` (stereo not drawn) [Ex 2-48] displayed a melting point of 127 to 129 °C. Also, the IC50 at human GnRH receptor was 0.22 nM. In data set [1], the concentration at 2 h stood at 2160 nM.

Turning to `O=C(C(C(=O)c1cccc(C(O)CO)c1)=C1Nc2ccccc2N1)c1cccc(Cl)c1` (stereo not drawn) [Ex 2-50], the IC50 on human GnRH receptor was 0.12 nM. For the same molecule, in data set [1], the concentration at 2 h was found to be 880 nM.

Molecule `O=C(C(C(=O)c1cccc([C@@H](O)CO)c1)=C1Nc2ccccc2N1)c1cccc(F)c1` [Ex 4-1, 2-(1,3-dihydro-2H-benzimidazol-2-ylidene)-1-{3-[(1R)-1,2-dihydroxyethyl]phenyl}-3-(3-fluorophenyl)propane-1,3-dione] returned a melting point of 190 to 191 °C. Moreover, in data set [2], the “metabolic stability” value is reported as “superior metabolic stability”. Besides, on human GnRH receptor, the IC50 is 0.093 nM. In data set [1], the concentration at 2 h amounted to 1360 nM. Further, at Cytochrome P450 (CYP3A4), the “Inhibitory activity II (CYP3A4)” value was “superior actions”.

For `O=C(C(C(=O)c1cccc([C@@H](O)CO)c1F)=C1Nc2ccccc2N1)c1cccc(F)c1` [Ex 4-4], the melting point was in the range of 197 to 198 °C. Further, in data set [2], the “metabolic stability” value was “superior metabolic stability”. Also, the IC50 at human GnRH receptor is 0.1 nM. In data set [1], the concentration at 2 h was 1040 nM. The “Inhibitory activity II (CYP3A4)” value on Cytochrome P450 (CYP3A4) is “superior actions”.

Molecule `Cc1c(C(=O)C(C(=O)c2cc(F)cc(F)c2)=C2Nc3ccccc3N2)cccc1[C@@H](O)CO` [Ex 4-5] had a melting point of 228 to 229 °C. Also, in data set [2], the “metabolic stability” value is “superior metabolic stability”. The IC50 on human GnRH receptor stood at 0.12 nM. In data set [1], the concentration at 2 h was found to be 3740 nM. In addition, on Cytochrome P450 (CYP3A4), the “Inhibitory activity II (CYP3A4)” value was “superior actions”.

For the molecule `CCCCc1c(C(=O)C(C(=O)c2cccc(F)c2)=C2Nc3ccccc3N2)cccc1[C@@H](O)CO` [Ex 4-8], the melting point was 132 to 133 °C. At human GnRH receptor, this molecule returned an IC50 of 0.081 nM. The concentration at 2 h in data set [1] was 1790 nM.

`O=C(C(C(=O)c1cccc([C@@H](O)CO)c1Cl)=C1Nc2ccccc2N1)c1cccc(Cl)c1` [Ex 4-15] yielded a melting point of 134 to 136 °C. This molecule had an IC50 at human GnRH receptor of 0.076 nM. For the same molecule, the concentration at 2 h in data set [1] was 1440 nM.

With `O=C(C(C(=O)c1cccc([C@@H](O)CO)c1Cl)=C1Nc2ccccc2N1)c1cccc(F)c1` [Ex 4-21], the melting point is 125 to 127 °C. Moreover, the “metabolic stability” value in data set [2] is on record as “superior metabolic stability”. On human GnRH receptor, the IC50 worked out at 0.24 nM. The concentration at 2 h in data set [1] is 2170 nM. At Cytochrome P450 (CYP3A4), the “Inhibitory activity II (CYP3A4)” value is “superior actions”.

Take `O=C(C(C(=O)c1ccc(F)c([C@@H](O)CO)c1)=C1Nc2ccccc2N1)c1cc(F)cc(F)c1` [Ex 4-22]: the melting point is 147 to 149 °C. The “metabolic stability” value in data set [2] is “superior metabolic stability”. This molecule yielded an IC50 on human GnRH receptor of 0.13 nM. The concentration at 2 h in data set [1] was determined as 2170 nM. For the same molecule, the “Inhibitory activity II (CYP3A4)” value at Cytochrome P450 (CYP3A4) is listed as “superior actions”.

`Cc1c(C(=O)C(C(=O)c2cccc(Cl)c2)=C2Nc3ccccc3N2)cccc1[C@@H](O)CO` [Ex 4-23]: on human GnRH receptor, the IC50 is 0.18 nM. Also, in data set [1], the concentration at 2 h worked out at 1110 nM.

As for `Cc1cccc(C(=O)C(C(=O)c2cccc([C@@H](O)CO)c2C)=C2Nc3ccccc3N2)c1` [Ex 4-25], the “metabolic stability” value in data set [2] is “superior metabolic stability”. Also, the IC50 on human GnRH receptor was found to be 0.14 nM. The concentration at 2 h in data set [1] came out at 1390 nM. Moreover, the “Inhibitory activity II (CYP3A4)” value on Cytochrome P450 (CYP3A4) was “superior actions”.

As to `Cc1c(C(=O)C(C(=O)c2ccccc2F)=C2Nc3ccccc3N2)cccc1[C@@H](O)CO` [Ex 4-29], the melting point is 215 to 217 °C. Also, the “metabolic stability” value in data set [2] was “superior metabolic stability”. For the same molecule, the IC50 at human GnRH receptor came to 0.19 nM. Further, in data set [1], the concentration at 2 h came out at 6440 nM. Moreover, the “Inhibitory activity II (CYP3A4)” value at Cytochrome P450 (CYP3A4) was “superior actions”.

`O=C(C(C(=O)c1cccc([C@@H](O)CO)c1Cl)=C1Nc2ccccc2N1)c1cc(F)cc(F)c1` [Ex 4-30] returned a melting point of 126 to 129 °C. The “metabolic stability” value in data set [2] is “superior metabolic stability”. The same molecule had an IC50 at human GnRH receptor of 0.1 nM. The concentration at 2 h in data set [1] came to 1500 nM. The “Inhibitory activity II (CYP3A4)” value at Cytochrome P450 (CYP3A4) is listed as “superior actions”.

`Cc1cccc(C(=O)C(C(=O)c2cccc([C@@H](O)CO)c2Cl)=C2Nc3ccccc3N2)c1` [Ex 4-32] had an IC50 on human GnRH receptor of 0.12 nM. Moreover, the concentration at 2 h in data set [1] was 670 nM.

`O=C(C(C(=O)c1cccc([C@@H](O)CO)c1F)=C1Nc2ccccc2N1)c1cc(F)cc(F)c1` [Ex 4-33] had an IC50 on human GnRH receptor of 0.12 nM. Also, in data set [1], the concentration at 2 h came out at 1590 nM.

In turn, `O=C(C(C(=O)c1cccc([C@@H](O)CO)c1)=C1Nc2ccccc2N1)c1cc(F)cc(F)c1` [Ex 13-2, 1-(3,5-difluorophenyl)-2-(1,3-dihydro-2H-benzimidazol-2-ylidene)-3-{3-[(1R)-1,2-dihydroxyethyl]phenyl}propane-1,3-dione] registered a melting point of 189 to 190 °C.

Values taken from patent US8076367B2, “Benzimidazolylidene propane-1,3-dione derivative or salt thereof” (Astellas Pharma Inc., priority 2004, dated 2011).
